pEC50: −log10 of the molar value. Where two headings read alike, the source gives them in different places.
Key:
Assay type in all cases: cell-based
[1] = test system: HepG2.2.15 cells; assay: Cytotoxicity determination in HepG2.2.15 cells (CCK-8); settings: 6 days treatment, CCK-8, highest concentration 100 uM
Summary of the method: (§1)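 HepG2.2.15 cells seeded at 5,000 cells/well in 2% FBS medium and exposed to compounds for 6 days (medium refreshed once), 8 three-fold dilutions from 100 uM. Viability read by CCK-8 after 2.5 h at 37 °C, absorbance 450 nm with 630 nm reference; CC50 calculated.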

[2] = test system: HBV; assay: Anti-viral assay in HepG2.2.15 cells: HBV inhibitory activity (HBV DNA in culture medium by q-PCR); settings: HepG2.2.15 cells, 6 days treatment, HBV DNA in culture medium by q-PCR, highest concentration 10 uM, read-out: EC50
Summary of the method: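 HepG2.2.15 cells seeded at 40,000/well in 2% FBS medium, dosed next day for 6 days (medium refreshed once midway); 8-point 3-fold dilutions from 10 uM top. HBV DNA in culture medium extracted and quantified by q-PCR; EC50 calculated from dose-response.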

[3] = Cytotoxicity determination in HepG2.2.15 cells (CCK-8); settings: human, 6 days treatment, CCK-8, highest concentration 100 uM
Summary of the method: as §1

[4] = Hepatitis B virus, HepG2.2.15, 144 h

SMILES	CC50 [1] [µM]	pEC50 [2]	CC50 at 6 days [3] [µM]	pEC50 [2, 4]
CCOC(=O)C1=C(C2CC=C(c3nc(C(=O)O)co3)CC2)NC(c2nccs2)=NC1c1ccc(F)c(F)c1Cl (single isomer, unassigned) [Compound I-13-D, 2-(4-(6-(2-chloro-3,4-difluorophenyl)-5-(ethoxycarbonyl)-2-(thiazol-2-yl)-3,6-dihydropyrimidin-4-yl)cyclohex-1-en-1-yl)oxazole-4-carboxylic Acid]	6.09	8.49	–	–
CCOC(=O)C1=C(C2CCN(c3nc(C(=O)OCC)co3)C2)NC(c2nccs2)=NC1c1ccc(F)c(F)c1Cl (single isomer, unassigned) [XI-85-M, Ethyl 2-(3-(6-(2-chloro-3,4-difluorophenyl)-5-(ethoxycarbonyl)-2-(thiazol-2-yl)-3,6-dihydropyrimidin-4-yl)pyrrolidin-1-yl)oxazole-4-carboxylate]	–	–	11.6	6.11
CCOC(=O)C1=C(C2CCC(c3cnn(C(C)CC(=O)O)c3)CC2)NC(c2nccs2)=NC1c1ccc(F)c(F)c1Cl (stereo not drawn) [Compound I-31, 3-(4-(4-(6-(2-Chloro-3,4-difluorophenyl)-5-(ethoxycarbonyl)-2-(thiazol-2-yl)-3,6-dihydropyrimidin-4-yl)cyclohexyl)-1H-pyrazol-1-yl)butanoic Acid]	–	–	3.78	7.23
CCOC(=O)C1=C(C2CCC(c3cnn(C4CC(C(=O)O)C4)c3)CC2)NC(c2nccs2)=NC1c1ccc(F)c(F)c1Cl (stereo not drawn) [Compound I-34, 3-(4-(4-(6-(2-Chloro-3,4-difluorophenyl)-5-(ethoxycarbonyl)-2-(thiazol-2-yl)-3,6-dihydropyrimidin-4-yl)cyclohexyl)-1H-pyrazol-1-yl)cyclobutanecarboxylic acid]	–	–	2.79	7.26
CCOC(=O)C1=C([C@H]2CC[C@H](c3nc(C(=O)O)no3)CC2)NC(c2nccs2)=NC1c1ccc(F)c(F)c1Cl (stereo partly drawn) [Compound I-45, (trans)-5-(-4-(6-(2-Chloro-3,4-difluorophenyl)-5-(ethoxycarbonyl)-2-(thiazol-2-yl)-3,6-dihydropyrimidin-4-yl)cyclohexyl)-1,2,4-oxadiazole-3-carboxylic Acid]	–	–	16.8	7.15
CCOC(=O)C1=C(C2CCN(c3ncc(C(=O)O)cn3)C(C)C2)NC(c2nccs2)=NC1c1ccc(F)c(F)c1Cl (stereo not drawn) [II-34-F, 2-(4-(6-(2-chloro-3,4-difluorophenyl)-5-(ethoxycarbonyl)-2-(thiazol-2-yl)-3,6-dihydropyrimidin-4-yl)-2-methylpiperidin-1-yl)pyrimidine-5-carboxylic acid]	–	–	7.96	> 8.34

— patent publication US11053235B2, “Substituted 1,4-dihydropyrimidines for the treatment of HBV infection or HBV-induced diseases” (Janssen Sciences Ireland Unlimited Company, priority 2018, dated 2021)
